Experimental data as given in patent US10246453B2, “Benzenesulfonamide compounds and their use as therapeutic agents” (Xenon Pharmaceuticals Inc., priority 2016, dated 2019).
Counter-ions that a name gives are not always drawn.

Experiments:
NaV1.1 = NaV1.1 (Homo sapiens (Human), UniProt P35498); assay: Sodium Influx Assay (Flux), NaV1.1; type: cell-based; settings: Trex HEK293 cells, ANG2 dye; arithmetic mean
NaV1.5 = NaV1.5 (Homo sapiens (Human), UniProt Q14524); assay: Sodium Influx Assay (Flux), NaV1.5; settings: read-out: Flux NaV1.5 IC50; Trex HEK293 cells, ANG2 dye; arithmetic mean
NaV1.5, sequence (Q14524 other isoform, or with tags, fused parts or gaps): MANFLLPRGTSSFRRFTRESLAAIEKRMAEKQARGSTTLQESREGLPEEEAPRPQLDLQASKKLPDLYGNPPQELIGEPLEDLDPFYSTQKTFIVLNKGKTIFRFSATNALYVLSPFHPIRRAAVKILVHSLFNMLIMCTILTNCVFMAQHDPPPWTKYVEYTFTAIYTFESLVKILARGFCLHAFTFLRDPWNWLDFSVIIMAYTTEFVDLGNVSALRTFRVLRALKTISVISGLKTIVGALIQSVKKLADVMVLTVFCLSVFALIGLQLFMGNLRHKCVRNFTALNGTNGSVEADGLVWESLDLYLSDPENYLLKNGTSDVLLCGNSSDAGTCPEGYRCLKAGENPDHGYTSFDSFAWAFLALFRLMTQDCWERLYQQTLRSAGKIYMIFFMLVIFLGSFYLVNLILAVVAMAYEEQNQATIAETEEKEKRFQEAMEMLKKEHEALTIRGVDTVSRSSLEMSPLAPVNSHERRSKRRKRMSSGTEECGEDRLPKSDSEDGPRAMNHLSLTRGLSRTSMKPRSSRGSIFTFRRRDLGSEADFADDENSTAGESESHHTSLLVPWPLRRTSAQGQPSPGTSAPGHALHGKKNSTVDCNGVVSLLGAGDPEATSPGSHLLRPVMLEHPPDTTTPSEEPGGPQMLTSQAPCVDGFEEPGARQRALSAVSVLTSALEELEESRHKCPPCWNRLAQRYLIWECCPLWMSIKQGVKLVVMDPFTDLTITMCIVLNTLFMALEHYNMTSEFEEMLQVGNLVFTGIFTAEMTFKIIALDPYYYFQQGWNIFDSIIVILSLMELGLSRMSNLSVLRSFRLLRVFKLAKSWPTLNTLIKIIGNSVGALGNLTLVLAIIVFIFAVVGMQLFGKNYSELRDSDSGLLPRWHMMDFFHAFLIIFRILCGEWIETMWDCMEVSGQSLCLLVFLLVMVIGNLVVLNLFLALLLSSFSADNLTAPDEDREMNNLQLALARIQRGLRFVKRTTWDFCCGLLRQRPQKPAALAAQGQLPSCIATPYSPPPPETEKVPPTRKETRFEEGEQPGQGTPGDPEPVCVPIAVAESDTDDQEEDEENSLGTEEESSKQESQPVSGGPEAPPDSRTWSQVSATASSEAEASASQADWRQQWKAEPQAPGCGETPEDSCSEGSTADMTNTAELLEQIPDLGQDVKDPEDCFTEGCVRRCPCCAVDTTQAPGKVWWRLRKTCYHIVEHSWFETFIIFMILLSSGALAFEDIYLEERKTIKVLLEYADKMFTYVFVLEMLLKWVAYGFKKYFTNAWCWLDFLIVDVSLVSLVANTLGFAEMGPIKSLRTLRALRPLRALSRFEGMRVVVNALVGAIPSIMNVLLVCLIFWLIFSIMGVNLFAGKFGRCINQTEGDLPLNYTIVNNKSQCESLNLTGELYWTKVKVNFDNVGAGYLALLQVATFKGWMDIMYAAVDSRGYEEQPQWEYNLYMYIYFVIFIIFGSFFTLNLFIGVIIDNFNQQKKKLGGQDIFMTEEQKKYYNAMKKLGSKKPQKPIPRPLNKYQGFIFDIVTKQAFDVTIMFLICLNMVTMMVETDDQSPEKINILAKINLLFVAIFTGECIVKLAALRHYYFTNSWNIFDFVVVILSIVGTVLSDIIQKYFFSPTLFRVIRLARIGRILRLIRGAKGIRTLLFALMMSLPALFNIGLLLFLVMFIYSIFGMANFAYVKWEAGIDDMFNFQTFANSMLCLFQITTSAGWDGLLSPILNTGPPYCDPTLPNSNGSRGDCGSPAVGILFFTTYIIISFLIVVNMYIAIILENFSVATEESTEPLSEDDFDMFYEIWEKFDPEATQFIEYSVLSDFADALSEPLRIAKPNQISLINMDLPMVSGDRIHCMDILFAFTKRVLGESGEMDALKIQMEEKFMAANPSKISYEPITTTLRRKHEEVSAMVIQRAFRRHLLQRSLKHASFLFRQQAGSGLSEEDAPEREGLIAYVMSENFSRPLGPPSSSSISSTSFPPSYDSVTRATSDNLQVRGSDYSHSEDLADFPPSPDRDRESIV

NaV1.6 = NaV1.6 (Homo sapiens (Human), UniProt Q9UQD0); assay: Sodium Influx Assay (Flux), NaV1.6; settings: read-out: Flux NaV1.6 IC50; Trex HEK293 cells, ANG2 dye; arithmetic mean

IC50 (NaV1.1) [µM] | IC50 (NaV1.6) [µM] | SMILES | IC50 (NaV1.5) [µM]
16.1 | 3.46 | CN(c1cc(F)c(S(=O)(=O)Nc2cscn2)cc1Cl)[C@H]1CCN(Cc2cccc(F)c2F)C1 [Example 213, (S)-5-chloro-4-((1-(2,3-difluorobenzyl)pyrrolidin-3-yl)(methyl)amino)-2-fluoro-N-(thiazol-4-yl)benzenesulfonamide] | 12.8
6 | 0.525 | COc1cccc(CN2CCC(Oc3ccc(S(=O)(=O)Nc4nccs4)cc3Cl)CC2)c1 [Example 84, 3-chloro-4-(1-(3-methoxybenzyl)piperidin-4-yloxy)-N-(thiazol-2-yl)benzenesulfonamide] | 3.54
9.93 | 0.274 | CN(c1ccc(S(=O)(=O)Nc2nccs2)cc1Cl)C1(C)CCN(Cc2ccccc2)C1 (stereo not drawn) [Example 241, 4-((1-benzyl-3-methylpyrrolidin-3-yl)(methyl)amino)-3-chloro-N-(thiazol-2-yl)benzenesulfonamide] | 15.1
15.9 | 0.021 | Cc1ccc(F)c(CN2CC[C@H](N(C)c3ccc(S(=O)(=O)Nc4ncns4)cc3Cl)C2)c1 [Example 35, (S)-3-chloro-4-((1-(2-fluoro-5-methylbenzyl)pyrrolidin-3-yl)(methyl)amino)-N-(1,2,4-thiadiazol-5-yl)benzenesulfonamide] | > 30
5.37 | 0.588 | Cc1cccc(CN2CC[C@H](Nc3cc(F)c(S(=O)(=O)Nc4nccs4)cc3Cl)C2)c1 [Example 86, (S)-5-chloro-2-fluoro-4-(1-(3-methylbenzyl)pyrrolidin-3-ylamino)-N-(thiazol-2-yl)benzenesulfonamide] | 12.5
5.74 | 4.15 | Cc1cccc(C)c1CN1CC[C@H](N(C)c2cc(F)c(S(=O)(=O)Nc3cscn3)cc2Cl)C1 [Example 203, (S)-5-chloro-4-((1-(2,6-dimethylbenzyl)pyrrolidin-3-yl)(methyl)amino)-2-fluoro-N-(thiazol-4-yl)benzenesulfonamide] | 6.7
8.75 | 3.34 | COc1ccc(F)c(CN2CC[C@H](N(C)c3cc(F)c(S(=O)(=O)Nc4cscn4)cc3Cl)C2)c1 [Example 173, (S)-5-chloro-2-fluoro-4-((1-(2-fluoro-5-methoxybenzyl)-pyrrolidin-3-yl)(methyl)amino)-N-(thiazol-4-yl)benzene-sulfonamide 2,2,2-trifluoroacetate] | 9.86
> 30 | 2.14 | C[C@@H](c1ccccc1)N1CCC(Oc2ccc(S(=O)(=O)Nc3ccncn3)cc2Cl)CC1 [Example 301, (S)-3-chloro-4-((1-(1-phenylethyl)piperidin-4-yl)oxy)-N-(pyrimidin-4-yl)benzenesulfonamide] | > 30
17.3 | 1.01 | CN(c1cc(F)c(S(=O)(=O)Nc2cscn2)cc1Cl)[C@H]1CCN(Cc2cccc(C(F)(F)F)n2)C1 [Example 187, (S)-5-chloro-2-fluoro-4-(methyl(1-((6-(trifluoromethyl)-pyridin-2-yl)methyl)pyrrolidin-3-yl)amino)-N-(thiazol-4-yl)benzene-sulfonamide] | 25.4
7.48 | 4 | Cc1cc(S(=O)(=O)Nc2cscn2)c(F)cc1N(C)[C@H]1CCN(CC2CCCCC2)C1 [Example 123, (S)-4-((1-(cyclohexylmethyl)-pyrrolidin-3-yl)(methyl)amino)-2-fluoro-5-methyl-N-(thiazol-4-yl)benzenesulfonamide] | > 30
> 30 | 7.73 | Cc1coc(CN2CC[C@H](N(C)c3cc(F)c(S(=O)(=O)Nc4cscn4)cc3C)C2)n1 [Example 139, (S)-2-fluoro-5-methyl-4-(methyl(1-((4-methyloxazol-2-yl)methyl)pyrrolidin-3-yl)amino)-N-(thiazol-4-yl)benzenesulfonamide] | > 30
16.6 | 5.57 | Cc1nc(CN2CC[C@H](N(C)c3cc(F)c(S(=O)(=O)Nc4cscn4)cc3C)C2)c(C(F)(F)F)o1 [Example 154, (S)-2-fluoro-5-methyl-4-(methyl(1-((2-methyl-5-(trifluoromethyl)oxazol-4-yl)methyl)pyrrolidin-3-yl)amino)-N-(thiazol-4-yl)benzenesulfonamide 2,2,2-trifluoroacetate] | 21.7
17.6 | 6.58 | O=S(=O)(Nc1nccs1)c1ccc(OC2CCN(Cc3ccc4ccccc4c3)CC2)c(Cl)c1 [Example 51, 3-chloro-4-((1-(naphthalen-2-ylmethyl)piperidin-4-yl)oxy)-N-(thiazol-2-yl)benzenesulfonamide 2,2,2-trifluoroacetate] | 3.48
3.18 | 0.664 | Cc1cccc(CN2CC[C@@H](Nc3ccc(S(=O)(=O)Nc4nccs4)cc3Cl)C2)c1 [Example 70, (R)-3-chloro-4-((1-(3-methylbenzyl)pyrrolidin-3-yl)amino)-N-(thiazol-2-yl)benzenesulfonamide] | 4.2
5.93 | 5.62 | CC1(Oc2ccc(S(=O)(=O)Nc3nccs3)cc2Cl)CCN(Cc2cccc(Cl)c2)CC1 [Example 20, 3-chloro-4-((1-(3-chlorobenzyl)-4-methylpiperidin-4-yl)oxy)-N-(thiazol-2-yl)benzenesulfonamide] | 6.1
24.7 | 1.47 | Cc1cc(S(=O)(=O)Nc2cccc(F)n2)c(F)cc1N(C)[C@H]1CCN(Cc2ccccc2)C1 [Example 308, (S)-4-((1-benzylpyrrolidin-3-yl)(methyl)amino)-2-fluoro-N-(6-fluoropyridin-2-yl)-5-methylbenzenesulfonamide] | > 30
7.58 | 0.129 | Cc1ccccc1CN1CC[C@H](N(C)c2cc(F)c(S(=O)(=O)Nc3cscn3)cc2C)C1 [Example 148, (S)-2-fluoro-5-methyl-4-(methyl(1-(2-methylbenzyl)pyrrolidin-3-yl)amino)-N-(thiazol-4-yl)benzenesulfonamide] | 12.4
29.3 | 0.529 | Cc1cc(S(=O)(=O)Nc2cscn2)c(F)cc1N(C)[C@H]1CCN(Cc2ncccc2OC(C)C)C1 [Example 116, (S)-2-fluoro-4-((1-((3-isopropoxypyridin-2-yl)methyl)pyrrolidin-3-yl)(methyl)amino)-5-methyl-N-(thiazol-4-yl)benzenesulfonamide formate] | > 30
10.7 | 0.52 | Cc1cc(S(=O)(=O)Nc2cscn2)c(F)cc1N(C)[C@H]1CCN(Cc2cccc(C)c2F)C1 [Example 127, (S)-2-fluoro-4-((1-(2-fluoro-3-methylbenzyl)pyrrolidin-3-yl)(methyl)amino)-5-methyl-N-(thiazol-4-yl)benzenesulfonamide 2,2,2-trifluoroacetate] | 10.1
> 30 | 9.92 | Cc1cc(S(=O)(=O)Nc2cscn2)c(F)cc1N(C)[C@H]1CCN(CC(C)(C)C)C1 [Example 124, (S)-2-fluoro-5-methyl-4-(methyl(1-neopentylpyrrolidin-3-yl)amino)-N-(thiazol-4-yl)benzenesulfonamide formate] | > 30
12.9 | 0.058 | Cc1cc(S(=O)(=O)Nc2cscn2)c(F)cc1N(C)[C@H]1CCN(Cc2ccn(CC(F)(F)F)n2)C1 [Example 118, (S)-2-fluoro-5-methyl-4-(methyl(1-((1-(2,2,2-trifluoroethyl)-1H-pyrazol-3-yl)methyl)pyrrolidin-3-yl)amino)-N-(thiazol-4-yl)benzenesulfonamide] | > 30

SMILES | IC50 (NaV1.1) [µM] | IC50 (NaV1.6) [µM] | IC50 (NaV1.5) [µM]
O=S(=O)(Nc1cscn1)c1cc(Cl)c(N[C@@H]2CCN(Cc3ccccc3)C2)cc1F [Example 261, (R)-4-((1-benzylpyrrolidin-3-yl)amino)-5-chloro-2-fluoro-N-(thiazol-4-yl)benzenesulfonamide] | 8.29 | 6.04 | 24.6
C[C@H]1C[C@@H](Oc2ccc(S(=O)(=O)Nc3nccs3)cc2Cl)CCN1Cc1ccccc1 (relative stereo) [Example 72, 4-((cis-1-benzyl-2-methylpiperidin-4-yl)oxy)-3-chloro-N-(thiazol-2-yl)benzenesulfonamide] | 6.81 | 6.07 | 13.5
